Measured values as given in ChEMBL document CHEMBL1154445, “Identification of "toxicophoric" features for predicting drug-induced QT interval prolongation” (Eur J Med Chem, 2008).

Columns and labels:
[1] = target: Voltage-gated inwardly rectifying potassium channel KCNH2 (Homo sapiens, UniProt Q12809); assay: Inhibition of human ERG channel in HEK293 cells by voltage-clamp method; settings: for pIC50(uM): human
Cavia porcellus [2] = assay: Cardiotoxicity in iv dosed Dunkin-Hartley guinea pig assessed as drug level required to evoke 50 ms QTc prolongation administered as 3 fold cumulative doses measured every 10 seconds at end of every 20 mins follow up period of individual dose by ECG
Cavia porcellus [3] = assay: Cardiotoxicity in Dunkin-Hartley guinea pig assessed as maximal QTc prolongation time at 10 mg/kg, iv administered as 3 fold cumulative doses measured every 10 seconds at end of every 20 mins follow up period of individual dose by ECG; format: toxicity, organism-based; parameters: dose 10 mg/kg, route intravenous; settings: in vivo
Cavia porcellus [4] = assay: Toxicity to Dunkin-Hartley guinea pig assessed as marked bradyarrhythmia and death at 10 mg/kg, iv; format: organism-based; parameters: dose 10 mg/kg, route intravenous; settings: in vivo
Cavia porcellus [5] = assay: Cardiotoxicity in Dunkin-Hartley guinea pig assessed as maximal QTc prolongation time at 3 mg/kg, iv administered as 3 fold cumulative doses measured every 10 seconds at end of every 20 mins follow up period of individual dose by ECG; format: toxicity, organism-based; parameters: dose 3 mg/kg, route intravenous; settings: in vivo

Sequence of Voltage-gated inwardly rectifying potassium channel KCNH2 (Q12809 whole entry): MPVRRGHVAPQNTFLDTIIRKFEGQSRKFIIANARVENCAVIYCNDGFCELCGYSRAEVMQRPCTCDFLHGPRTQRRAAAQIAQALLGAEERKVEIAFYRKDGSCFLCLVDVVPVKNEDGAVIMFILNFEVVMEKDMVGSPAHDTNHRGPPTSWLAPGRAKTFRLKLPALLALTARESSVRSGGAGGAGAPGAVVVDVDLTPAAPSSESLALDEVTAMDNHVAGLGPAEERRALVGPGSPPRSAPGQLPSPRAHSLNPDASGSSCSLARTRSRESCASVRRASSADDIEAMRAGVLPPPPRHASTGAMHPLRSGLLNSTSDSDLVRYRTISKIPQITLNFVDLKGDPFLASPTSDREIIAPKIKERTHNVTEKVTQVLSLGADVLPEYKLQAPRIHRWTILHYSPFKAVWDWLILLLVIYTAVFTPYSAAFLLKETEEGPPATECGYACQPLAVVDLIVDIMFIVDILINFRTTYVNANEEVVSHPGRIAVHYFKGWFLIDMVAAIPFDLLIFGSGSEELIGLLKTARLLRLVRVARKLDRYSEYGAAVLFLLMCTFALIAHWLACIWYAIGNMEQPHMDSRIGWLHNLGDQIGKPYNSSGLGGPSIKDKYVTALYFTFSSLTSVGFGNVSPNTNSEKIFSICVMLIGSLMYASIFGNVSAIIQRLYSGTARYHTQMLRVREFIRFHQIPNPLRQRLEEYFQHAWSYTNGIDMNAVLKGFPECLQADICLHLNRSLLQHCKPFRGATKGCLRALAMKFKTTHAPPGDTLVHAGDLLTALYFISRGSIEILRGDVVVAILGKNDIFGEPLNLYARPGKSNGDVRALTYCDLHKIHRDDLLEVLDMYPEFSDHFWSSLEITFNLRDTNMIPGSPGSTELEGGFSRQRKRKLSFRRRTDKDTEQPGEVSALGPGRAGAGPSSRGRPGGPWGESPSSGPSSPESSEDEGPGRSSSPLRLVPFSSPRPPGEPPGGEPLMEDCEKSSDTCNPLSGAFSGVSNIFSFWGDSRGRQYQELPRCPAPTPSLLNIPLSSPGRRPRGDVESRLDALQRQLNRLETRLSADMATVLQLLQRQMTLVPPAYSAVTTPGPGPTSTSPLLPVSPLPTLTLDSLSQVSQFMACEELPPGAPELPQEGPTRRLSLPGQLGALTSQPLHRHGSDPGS

Row | SMILES | EC50 (Cavia porcellus [2]) [µmol/kg] | pEC50 (Cavia porcellus [2]) | Emax (Cavia porcellus [3]) [ms] | further results
1 | CN1CCN(C2=Nc3ccccc3Nc3sc(CO)cc32)CC1 |  |  |  | IC50 [1]: 11.5 µM
2 | CN1CC(=O)N2[C@H](c3ccc4c(c3)OCO4)c3[nH]c4ccccc4c3C[C@@H]2C1=O |  |  |  | IC50 [1]: 100 µM
3 | CCCN(CCC)C1CCc2cccc(O)c2C1 (stereo not given) [8-OH-DPAT] | 4.57 | 2.95 | 116.3 | 
4 | COc1ccc(CCN2CCC(Nc3nc4ccccc4n3Cc3ccc(F)cc3)CC2)cc1 [ASTEMIZOLE] | 0.39 | 3.74 |  | 
5 | COc1cc(N)c(Cl)cc1C(=O)NC1CCN(CCCOc2ccc(F)cc2)CC1OC (stereo not given) [CISAPRIDE] | 2.12 | 3 | 81.9 | 
6 | Oc1ccc(CCN2CCC(Nc3nc4ccccc4n3Cc3ccc(F)cc3)CC2)cc1 [DESMETHEYLASTEMIZOLE] |  |  |  | IC50 [1]: 0.001 µM
7 | O=C(CCCN1CCC(O)(c2ccc(Cl)cc2)CC1)c1ccc(F)cc1 [HALOPERIDOL] | 0.88 | 3.48 | 123.3 | 
8 | COC(=O)C1=CC[C@@H]2CC[C@H]1N2C [METHYLECGONIDINE] |  |  |  | pIC50(uM) ([1]; hek293): -2.23
9 | CN1CCC[C@H]1c1cccnc1 [NICOTINE] |  |  |  | pIC50(uM) ([1]; hek293): -2.39
10 | CNCCC(Oc1ccccc1OC)c1ccccc1 (stereo not given) [NISOXETINE] |  |  | 37.5 | 
11 | CCC1(c2ccccc2)C(=O)NC(=O)NC1=O [PHENOBARBITAL] |  |  |  | pIC50(uM) ([1]; HEK293 cells expressing human ERG channel): -3.48
12 | C=C[C@H]1C[N@@]2CC[C@H]1C[C@@H]2[C@@H](O)c1ccnc2ccc(OC)cc12 [QUINIDINE] | 8.34 | 2.55 | 78.6 | 
13 | Cc1nc2sccn2c(=O)c1CCN1CCC(=C(c2ccc(F)cc2)c2ccc(F)cc2)CC1 [RITANSERIN] | 0.19 | 4.05 |  | Activity (Cavia porcellus [4]): Toxic; Emax (Cavia porcellus [5]): 106.8 ms
14 | CC(C)NCC(O)c1ccc(NS(C)(=O)=O)cc1 (stereo not given) [SOTALOL] | 6.2 | 2.77 | 97.3 | 
15 | O=C(CCCN1CCC2(CC1)C(=O)NCN2c1ccccc1)c1ccc(F)cc1 [SPIPERONE] |  |  | 100 | 
16 | CCCCNc1ccc(C(=O)OCCN(C)C)cc1 [TETRACAINE] | 9.04 | 2.62 | 91.5 | 
17 | O=C(CCCN1CCC(O)(c2cccc(C(F)(F)F)c2)CC1)c1ccc(F)cc1 [TRIFLUPERIDOL] | 7.65 | 2.51 | 74.7 | 
